pIC50: −log10 of the molar value.

The target of the test is T1, human full-length MKNK1 (Homo sapiens, UniProt Q9BUB5, T385D).
T1 construct: GST (N); purchased Carna Biosciences 02-145; host or cells: insect cells (baculovirus expression system)
T1 sequence (Q9BUB5 1-424 isoform Q9BUB5-2 T344D): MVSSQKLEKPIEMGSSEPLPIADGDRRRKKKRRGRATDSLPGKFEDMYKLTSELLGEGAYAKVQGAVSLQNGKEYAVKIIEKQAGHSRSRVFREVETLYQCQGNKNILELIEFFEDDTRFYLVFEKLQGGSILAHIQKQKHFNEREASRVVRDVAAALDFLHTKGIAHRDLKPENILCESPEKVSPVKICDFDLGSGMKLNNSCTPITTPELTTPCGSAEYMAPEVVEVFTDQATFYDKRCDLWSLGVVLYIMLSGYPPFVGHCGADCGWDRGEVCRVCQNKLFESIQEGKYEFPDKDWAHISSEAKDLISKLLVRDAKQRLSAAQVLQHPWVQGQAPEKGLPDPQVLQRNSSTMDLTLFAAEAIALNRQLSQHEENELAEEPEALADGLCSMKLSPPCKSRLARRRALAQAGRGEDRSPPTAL
Kind of test: MKNK1 kinase high ATP assay (TR-FRET). The note with it: high ATP (2 mM final), 15 min preincubation with enzyme, GST-MKNK1 (T344D). The class given is biochemical. As for the experimental part:
MKNK1-inhibitory activity at high ATP of compounds of the present invention after their preincubation with MKNK1 was quantified employing the TR-FRET-based MKNK1 high ATP assay as described in the following paragraphs.
A recombinant fusion protein of Glutathione-S-Transferase (GST, N-terminally) and human full-length MKNK1 (amino acids 1-424 and T344D of accession number BAA 19885.1), expressed in insect cells using baculovirus expression system and purified via glutathione sepharose affinity chromatography, was purchased from Carna Biosciences (product no 02-145) and used as enzyme. As substrate for the kinase reaction the biotinylated peptide biotin-Ahx-IKKRKLTRRKSLKG (C-terminus in amide form) was used, which can be purchased e.g. from the company Biosyntan (Berlin-Buch, Germany).
For the assay 50 nL of a 100fold concentrated solution of the test compound in DMSO was pipetted into a black low volume 384well microtiter plate (Greiner Bio-One, Frickenhausen, Germany), 2 μL of a solution of MKNK1 in aqueous assay buffer [50 mM HEPES pH 7.5, 5 mM MgCl2, 1.0 mM dithiothreitol, 0.005% (v/v) Nonidet-P40 (Sigma)] was added and the mixture was incubated for 15 min at 22° C. to allow pre-binding of the test compounds to the enzyme before the start of the kinase reaction. Then the kinase reaction was started by the addition of 3 μL of a solution of adenosine-tri-phosphate (ATP, 3.3 mM=>final conc. in the 5 μL assay volume is 2 mM) and substrate (0.1 μM=>final conc. in the 5 μL assay volume is 0.06 μM) in assay buffer and the resulting mixture was incubated for a reaction time of 30 min at 22° C. The concentration of MKNK1 was adjusted depending of the activity of the enzyme lot and was chosen appropriate to have the assay in the linear range, typical concentrations were in the range of 0.003 μg/mL. The reaction was stopped by the addition of 5 μL of a solution of TR-FRET detection reagents (5 nM streptavidine-XL665 [Cisbio Bioassays, Codolet, France] and 1 nM anti-ribosomal protein S6 (pSer236)-antibody from Invitrogen [#44921G] and 1 nM LANCE EU-W1024 labeled ProteinG [Perkin-Elmer, product no. AD0071]) in an aqueous EDTA-solution (100 mM EDTA, 0.1% (w/v) bovine serum albumin in 50 mM HEPES pH 7.5).
The resulting mixture was incubated for 1 h at 22° C. to allow the formation of complex between the phosphorylated biotinylated peptide and the detection reagents. Subsequently the amount of phosphorylated substrate was evaluated by measurement of the resonance energy transfer from the Eu-chelate to the streptavidine-XL. Therefore, the fluorescence emissions at 620 nm and 665 nm after excitation at 350 nm were measured in a TR-FRET reader, e.g. a Rubystar (BMG Labtechnologies, Offenburg, Germany) or a Viewlux (Perkin-Elmer). The ratio of the emissions at 665 nm and at […] was taken as the measure for the amount of phosphorylated substrate. The data were normalised (enzyme reaction without inhibitor=0% inhibition, all other assay components but no enzyme=100% inhibition).
In turn, `O=C(N1CCOCC1)N1CCc2c(sc3ncnc(Nc4cc5cn[nH]c5cc4Cl)c23)C1` [Example 51, {4-[(6-Chloro-1H-indazol-5-yl)amino]-5,8-dihydropyrido[4′,3′:4,5]thieno[2,3-d]pyrimidin-7(6H)-yl}(morpholin-4-yl)methanone] gave a pIC50 of 7.24.

The molecule `CSc1cc2[nH]ncc2cc1Nc1ncnc2sc3c(c12)CCN(C(=O)C1CCN(C)CC1)C3` [Example 74, (1-Methylpiperidin-4-yl)[4-{[6-(methylsulfanyl)-1H-indazol-5-yl]amino}-5,8-dihydropyrido[4′,3′:4,5]thieno[2,3-d]pyrimidin-7(6H)-yl]methanone] gave a pIC50 of 8.40.

As to `COc1cc2[nH]ncc2cc1Nc1ncnc2sc3c(c12)CCN(C(=O)N(C)CCC(F)(F)F)C3` [Example 99, 4-[(6-Methoxy-1H-indazol-5-yl)amino]-N-methyl-N-(3,3,3-trifluoropropyl)-5,8-dihydropyrido[4′,3′:4,5]thieno[2,3-d]pyrimidine-7(6H)-carboxamide], the pIC50 is 8.70.

Molecule `COc1cc2[nH]ncc2cc1Nc1ncnc2sc3c(c12)CCN(C(=O)N1CCCC1)C3` [Example 72, {4-[(6-Methoxy-1H-indazol-5-yl)amino]-5,8-dihydropyrido[4′,3′:4,5]thieno[2,3-d]pyrimidin-7(6H)-yl}(pyrrolidin-1-yl)methanone] gave a negative-log IC50 (pIC50) of 8.00.

`COc1cc2[nH]ncc2cc1Nc1ncnc2sc3c(c12)CCN(CCC(=O)N(C)C)C3` [Example 71, 3-{4-[(6-Methoxy-1H-indazol-5-yl)amino]-5,8-dihydropyrido[4′,3′:4,5]thieno[2,3-d]pyrimidin-7(6H)-yl}-N,N-dimethylpropanamide] gave a pIC50 of 7.72.

The molecule `CC(C)C(=O)N1CCc2c(sc3ncnc(Nc4ccc5[nH]c(=O)sc5c4)c23)C1` [Example 18, 6-[(7-Isobutyryl-5,6,7,8-tetrahydropyrido[4′,3′:4,5]thieno[2,3-d]pyrimidin-4-yl)amino]-1,3-benzothiazol-2(3H)-one] had a pIC50 of 6.95.

For the molecule `COc1cc2[nH]ncc2cc1Nc1ncnc2sc3c(c12)CCN(C(=O)C1CCCCC1)C3` [Example 92, Cyclohexyl{4-[(6-methoxy-1H-indazol-5-yl)amino]-5,8-dihydropyrido[4′,3′:4,5]thieno[2,3-d]pyrimidin-7(6H)-yl}methanone], the pIC50 is 8.52. This pIC50 lies 1.57 log units higher than the previous one.

`c1nc(Nc2ccc3[nH]ncc3c2)c2c3c(sc2n1)CN(CCN1CCOCC1)CC3` [Example 61, N-(1H-Indazol-5-yl)-7-[2-(morpholin-4-yl)ethyl]-5,6,7,8-tetrahydropyrido[4′,3′:4,5]thieno[2,3-d]pyrimidin-4-amine] showed a pIC50 of 7.60.

`COc1cc2[nH]ncc2cc1Nc1ncnc2sc3c(c12)CCN(C(=O)N1C[C@@H](C)O[C@@H](C)C1)C3` [Example 32, [(2R,6S)-2,6-Dimethylmorpholin-4-yl]{4-[(6-methoxy-1H-indazol-5-yl)amino]-5,8-dihydropyrido[4′,3′:4,5]thieno[2,3-d]pyrimidin-7(6H)-yl}methanone] gave a pIC50 of 8.00.

On to `C[C@@H]1CN(C(=O)N2CCc3c(sc4ncnc(Nc5ccc6[nH]c(=O)sc6c5)c34)C2)C[C@H](C)O1` [Example 31, 6-[(7-{[(2R,6S)-2,6-Dimethylmorpholin-4-yl]carbonyl}-5,6,7,8-tetrahydropyrido[4′,3′:4,5]thieno[2,3-d]pyrimidin-4-yl)amino]-1,3-benzothiazol-2(3H)-one], for which the pIC50 is 7.23.

In the case of `CN(C)C(=O)N1CCc2c(sc3ncnc(Nc4cnc5[nH]ncc5c4)c23)C1` [Example 13, N,N-Dimethyl-4-(1H-pyrazolo[3,4-b]pyridin-5-ylamino)-5,8-dihydropyrido[4′,3′:4,5]thieno[2,3-d]pyrimidine-7(6H)-carboxamide], the pIC50 was 7.32.

With `CS(=O)(=O)N1CCc2c(sc3ncnc(Nc4ccc5[nH]ncc5c4)c23)C1` [Example 38, N-(1H-Indazol-5-yl)-7-(methylsulfonyl)-5,6,7,8-tetrahydropyrido[4′,3′:4,5]thieno[2,3-d]pyrimidin-4-amine], the pIC50 is 7.17. This pIC50 and that of the molecule before are within 0.2 log units of each other.
